Results: patent US20050170041A1, “Chewing gum compositions comprising monatin and methods for making same” (Cargill, Inc., priority 2003, published 2005)
“Also recorded” adds a separate entry of the source.

How the values were obtained:
[1] = Sensory evaluation of sweeteners in iced tea; type: in vivo; conditions: 200 ml serving, aspartame 450 ppm, monatin 40 ppm, panel n=6
Procedure: Monatin formulations, including R,R monatin or R,R monatin/erythritol combinations, were assessed relative to other known sweeteners (aspartame and sucralose) in iced tea. The key sensory parameters assessed included sweetness quality, aftertaste, bitter taste and its aftertaste. Qualitative evaluation has been carried out.
An ice tea formulation was developed to evaluate sweetener performance (Table 7).
Sweeteners were added to tea at the following concentrations:
The evaluation of ice tea drinks was carried out by a panel (n=6) of experienced sensory evaluators.

[2] = Quantitative synergy of monatin in blends with other sweeteners; type: in vivo
[3] = Stability of monatin at pH 3 with increasing temperatures; type: physicochemical; conditions: synthetic monatin
Procedure: A sample of synthetic monatin was subjected to pH 3 at temperatures of 25° C., 50° C. and 100° C. At room temperature and pH 3, a 14% loss in monatin was observed over a period of 48 hours. This loss was attributed to lactone formation. At 50° C. and pH 3, a 23% loss in monatin was observed over a period of 48 hours. This loss was attributed to lactone formation and the buildup of an unknown compound after about 15.5 minutes. […] The major detectable component was an unknown at 15.5 minutes.

[4] = Stability of monatin at high temperature (80° C.) and neutral pH, LC-MS; type: physicochemical; conditions: pH 7, 75 ppm, after 7-35 days, synthetic ~96% 2R,4R/2S,4S
Procedure: A 100 milliliter solution of 75 ppm monatin at pH 7 was used as a stock solution. The synthetic monatin sample contained approximately 96% of the 2R,4R/2S,4S enantiomeric pair and 4% of the 2R,4S/2S,4R enantiomeric pair. Samples were incubated at 80° C. and pH 7 for the duration of the experiment and samples were withdrawn at 0, 1, 2, 3, 4 hours and 1, 2, 4, 7, 14, 21 and 35 days. All experimental conditions were run in duplicate.
A response curve was established for both detected diastereomer peaks of the synthetic monatin. A range of 5-150 ppm was bracketed with the synthetic monatin standard dissolved in DI water. Separation of the two diastereomer peaks was accomplished using a 3.9×150 mm Novapak C18 (Waters Corporation) HPLC column. Ultraviolet-Visible (UV) and Mass Spectrometer (MS) detectors were used in series for detection and quantitation. Monatin and its lactone peak each have a UVmax at 279 nm that aided in precise detection. Quantification was done by acquiring Selected Ion Monitoring (SIM) scan of 293.3 m/z and 275.3 m/z in positive-ion electrospray mode.

[5] = Sensory stability of monatin and aspartame at pH 2.5, 3.0, 4.0 at 40° C.; type: physicochemical; conditions: for Rate constant (k) of sweetness loss: 40° C., pseudo-first order assumed; for SEV Monatin / Retention of Monatin Sweetness: stored at 40° C., monatin ~55 ppm
Procedure: The sensory stability of monatin solutions prepared at pH 2.5, 3.0 and 4.0 and stored at 40° C. was monitored for 100 days. Loss of sweetness from these solutions was compared with the losses of sweetness from aspartame solutions prepared and stored under identical conditions.
The sensory stability of monatin (8% SEV, ˜55 ppm, synthetic blend containing approximately 96% of the 2R,4R/2S, 4S enantiometric pair and 4% of the 2R,4S/2S,4R enantiometric pair) in phosphate/citrate buffers having a pH of 2.5, 3.0, and 4.0 was examined after storage at 40° C. The stability of monatin was compared to that of aspartame (400 ppm) in the same buffers. Three sucrose reference solutions were prepared in the same phosphate/citrate buffers as the monatin and aspartame solutions. All prepared solutions were stored in the dark.
The sweetness of each sweetener relative to sucrose was assessed in duplicate by a panel (n=8) of trained sensory evaluators experienced in the sweetness estimation procedure. All samples (in the same buffers) were served in duplicate at a temperature of 22° C.±1° C. Monatin (test) solutions, coded with 3 digit random number codes were presented individually to panelists, in random order. Sucrose reference standards, ranging from 4.0-10.0% (w/v) sucrose, increasing in steps of 0.5% (w/v) sucrose were also provided. Panelists were asked to estimate sweetness by comparing the sweetness of the test solution to the sucrose standards. This was carried out by taking 3 sips of the test solution, followed by a sip of water, followed by 3 sips of sucrose standard followed by a sip of water, etc. Panelists were encouraged to estimate the sweetness to one decimal place, e.g., 6.8, 8.5. A five minute rest period was imposed between evaluating the test solutions. Panelists were also asked to rinse well and eat a cracker to reduce any potential carry over effects.
If a pseudo-first order breakdown reaction is assumed, a plot of logn percentage retention versus time (logn % RTN v. t) allows estimation of the half-life (t½) and rate constant (k) of sweetness loss under any given set of conditions. In so doing, the kinetics of monatin and aspartame sweetness loss may be summarized as follows in Table 14.

Compound: NC(CC(O)(Cc1c[nH]c2ccccc12)C(=O)O)C(=O)O (stereo not drawn) [Monatin, 2-hydroxy-2-(indol-3-ylmethyl)-4-aminoglutaric acid]
- Comments: flavor enhancement (lemon flavor notes) [1]: enhanced the lemon flavor notes
- quantitative synergy with cyclamates ([2]; blend with cyclamates): quantitatively synergistic
- quantitative synergy with other sweeteners ([2]; with aspartame, saccharin, acesulfame-K, sucralose, or carbohydrate sweeteners): no significant quantitative synergy
- loss in monatin ([3]; 50° C., pH 3, 48 hours): 23%
- loss in monatin ([3]; 100° C., pH 3, after 24 hours): nearly all monatin was lost
- loss in monatin ([3]; room temperature (25° C.), pH 3, 48 hours): 14%
- degree of degradation [4]: insignificant
- stability of sweetness compared with aspartame ([5]; acidic conditions and storage at 40° C.): more stable sweetness than does aspartame
- percentage retention of sweetness compared with aspartame ([5]; each pH (2.5, 3.0, 4.0), after 100 days storage at 40° C.): greater than that retained with aspartame; also recorded: greater than that retained from aspartame
- Rate constant (k) of sweetness loss ([5]; pH 2.5): 0.011 day⁻¹
- Sweetness Retained ([5]; pH 2.5, after 100 days storage at 40° C.): 29%
- SEV Monatin ([5]; pH 2.5, day 0): 7.35 % sucrose
- Retention of Monatin Sweetness ([5]; pH 2.5, day 1): 93.3%
- SEV Monatin ([5]; pH 2.5, day 1): 6.86 % sucrose
- Retention of Monatin Sweetness ([5]; pH 2.5, day 2): 91.2%
- SEV Monatin ([5]; pH 2.5, day 2): 6.70 % sucrose
- Retention of Monatin Sweetness ([5]; pH 2.5, day 3): 88.4%
- SEV Monatin ([5]; pH 2.5, day 3): 6.50 % sucrose
- Retention of Monatin Sweetness ([5]; pH 2.5, day 4): 85.2%
- SEV Monatin ([5]; pH 2.5, day 4): 6.26 % sucrose
- Retention of Monatin Sweetness ([5]; pH 2.5, day 7): 82.7%
- SEV Monatin ([5]; pH 2.5, day 7): 6.08 % sucrose
- Retention of Monatin Sweetness ([5]; pH 2.5, day 8): 81.4%
- SEV Monatin ([5]; pH 2.5, day 8): 5.98 % sucrose
- Retention of Monatin Sweetness ([5]; pH 2.5, day 9): 80.1%
- SEV Monatin ([5]; pH 2.5, day 9): 5.89 % sucrose
- Retention of Monatin Sweetness ([5]; pH 2.5, day 11): 78.6%
- SEV Monatin ([5]; pH 2.5, day 11): 5.78 % sucrose
- Retention of Monatin Sweetness ([5]; pH 2.5, day 50): 62.7%
- SEV Monatin ([5]; pH 2.5, day 50): 4.61 % sucrose
- Retention of Monatin Sweetness ([5]; pH 2.5, day 100): 28.6%
- SEV Monatin ([5]; pH 2.5, day 100): 2.10 % sucrose
- Rate constant (k) of sweetness loss ([5]; pH 3.0): 0.006 day⁻¹
- Sweetness Retained ([5]; pH 3.0, after 100 days storage at 40° C.): 58%
- SEV Monatin ([5]; pH 3.0, day 0): 7.08 % sucrose
- Retention of Monatin Sweetness ([5]; pH 3.0, day 1): 99.6%
- SEV Monatin ([5]; pH 3.0, day 1): 7.05 % sucrose
- Retention of Monatin Sweetness ([5]; pH 3.0, day 2): 93.2%
- SEV Monatin ([5]; pH 3.0, day 2): 6.60 % sucrose
- Retention of Monatin Sweetness ([5]; pH 3.0, day 3): 91.4%
- SEV Monatin ([5]; pH 3.0, day 3): 6.47 % sucrose
- Retention of Monatin Sweetness ([5]; pH 3.0, day 4): 91.6%
- SEV Monatin ([5]; pH 3.0, day 4): 6.49 % sucrose
- Retention of Monatin Sweetness ([5]; pH 3.0, day 7): 85.3%
- SEV Monatin ([5]; pH 3.0, day 7): 6.04 % sucrose
- Retention of Monatin Sweetness ([5]; pH 3.0, day 8): 83.8%
- SEV Monatin ([5]; pH 3.0, day 8): 5.93 % sucrose
- Retention of Monatin Sweetness ([5]; pH 3.0, day 9): 83.1%
- SEV Monatin ([5]; pH 3.0, day 9): 5.88 % sucrose
- Retention of Monatin Sweetness ([5]; pH 3.0, day 11): 83.1%
- SEV Monatin ([5]; pH 3.0, day 11): 5.88 % sucrose
- Retention of Monatin Sweetness ([5]; pH 3.0, day 50): 72.3%
- SEV Monatin ([5]; pH 3.0, day 50): 5.12 % sucrose
- Retention of Monatin Sweetness ([5]; pH 3.0, day 100): 57.9%
- SEV Monatin ([5]; pH 3.0, day 100): 4.10 % sucrose
- Rate constant (k) of sweetness loss ([5]; pH 4.0): 0.003 day⁻¹
- Sweetness Retained ([5]; pH 4.0, after 100 days storage at 40° C.): 78%
- SEV Monatin ([5]; pH 4.0, day 0): 7.40 % sucrose
- Retention of Monatin Sweetness ([5]; pH 4.0, day 3): 95.7%
- SEV Monatin ([5]; pH 4.0, day 3): 7.08 % sucrose
- Retention of Monatin Sweetness ([5]; pH 4.0, day 8): 86.8%
- SEV Monatin ([5]; pH 4.0, day 8): 6.42 % sucrose
- Retention of Monatin Sweetness ([5]; pH 4.0, day 11): 85.9%
- SEV Monatin ([5]; pH 4.0, day 11): 6.36 % sucrose
- Retention of Monatin Sweetness ([5]; pH 4.0, day 17): 82.4%
- SEV Monatin ([5]; pH 4.0, day 17): 6.10 % sucrose
- Retention of Monatin Sweetness ([5]; pH 4.0, day 24): 84.5%
- SEV Monatin ([5]; pH 4.0, day 24): 6.25 % sucrose
- Retention of Monatin Sweetness ([5]; pH 4.0, day 50): 82.9%
- SEV Monatin ([5]; pH 4.0, day 50): 6.14 % sucrose
- Retention of Monatin Sweetness ([5]; pH 4.0, day 100): 78.4%
- SEV Monatin ([5]; pH 4.0, day 100): 5.80 % sucrose
